Source: patent EP3892734B1, “SCREENING METHODS AND THERAPEUTIC APPLICATIONS BASED ON BACTERIAL MOTILITY INHIBITION” (Ludwig-Maximilians-Universität München, priority 2020, dated 2021)
≈ marks a conversion by molar mass, not a printed value. Where “and” joins values, the source holds several entries; their conditions need not be identical. Equal values may be shown once. Read-outs that look alike come from different tables or passages of the source.

Experiments:
H. pylori N6 [1] = assay: vitality / metabolic (respiratory inhibition) counter-screen; type: cell-based, Helicobacter pylori; conditions: > 100% indicates no inhibition
[2] = plasma cytokine analysis by Bioplex multiplex bead assay in treated mice; type: in vivo, C57B/L6 mice; conditions: chronic mouse infection model, BioRad Bioplex assay
Procedure: Before the infection and at the end of the treatment experiment, mouse blood was taken from the eye vein of a few selected mice (approximately 30 to 100 µl per mouse). The blood plasma was subsequently separated from cells using separation centrifugation devices (Sarstedt Microvette lithium-heparin). Plasma was diluted in Biorad Bioplex assay buffer to one fourth of the initial concentration and measured in the 23-Plex BioPlex bead-based multiplex cytokine assay (Biorad #m60009rdpd) according to the manufacturer's instructions and using the provided standards. Each sample was measured in a total volume of 50 µl in duplicate.

[3] = system: H. pylori flaA-luciferase reporter strain N6; assay: microbe, parasite or virus in culture; type: cell-based, Helicobacter pylori
Description: The H. pylori flaA promoter was fused with a luciferase operon (luxAB) from Vibrio harveyi in a H. pylori suicide plasmid (Niehus, Ye, Suerbaum, & Josenhans, 2002). The flaA reporter fusion was recombined into the H. pylori chromosome and the resulting strain tested to be strongly luminescence positive. The reporter strain (N6 flaA-lux4B) activated luminescence to about 40,000 to 60,000 counts per second using luciferase substrate at an OD600 of 0.8 (mid-log phase) in liquid culture. The negative control value of a non-reporter strain or reporter strain without luminescence substrate was close to zero. […] The Z-Factor (Zhang et al., 1999) determined for the assay with various bacterial inhibitors measured in quadruplicates or triplicates was routinely between 0.6 and 0.7, with a confidence interval of 95%.
H. pylori luminescence reporter strains were passaged on blood agar plates less than 22 hours prior to the start of the experiment. The passage number for these assays was not higher than five to preserve the strain's properties and genetic stability. Luciferase reaction buffer was prepared as follows: 50 mM disodium phosphate (Na2HPO4) and 2% BSA were dissolved in HPLC water, filter sterilized, aliquoted and frozen at - 20°C.
Bacteria were harvested in brain-heart infusion medium (BHI, 3% yeast extract with 5% horse serum added) and adjusted to an OD600 of 0.8 at room temperature. 50 µl of the bacterial suspension were added per well of a 96 well plate (non-binding, Greiner Bio-One 655901). 2 µl of each of the test compounds (provided as a 10 mM DMSO solution) were added to the sample wells. The same amount of pure, diluted DMSO was added to the control wells for a concentration of a maximum of 4% DMSO per well, since higher concentrations will interfere with metabolic functions of H. pylori and cause false negative results. The microwell plate was incubated inside a sterile sealed PM Gas Bag (BIOLOG #3032) together with a CampyGen Compact pack (Oxoid) to generate microaerobic conditions at 37°C and with shaking at 175 rpm for 4 h.
Shortly before taking the measurement, the luciferase substrate was prepared by diluting the luminescence substrate decanal (10% stock, Sigma Aldrich) at a 1 :2,000 dilution in luciferase reaction buffer. 60 µl of the substrate were added per well of a white 96 microwell plate (Thermo Scientific #236105) without the lid.
For the final luciferase measurement, 10 µl of bacterial solution were transferred with the epMotion 96 (Eppendorf) simultaneously to the wells containing the luciferase substrate and incubated on a microwell plate shaker for 10 s to lyse the bacteria. The measurements were recorded with a Perkin Elmer Victor 3/WNallac 1420 plate reader (luminometry, measurement time: 0.5 sec) and integrated to counts per sec. For the background measurement, 10 µl sterile medium containing 4% DMSO was added to the wells. For each measurement, at least four luciferase reporter positive control wells (without inhibitory compound) and four negative control wells (background without bacteria) were run on the same day and under the same assay conditions in parallel.

H. pylori N6 [4] = assay: MIC/MBC determination in broth culture; type: cell-based, Helicobacter pylori; conditions: for classical antibacterial activity (growth / metabolic inhibition) against H. pylori: result in words
Procedure: In order to distinguish compounds having anti-flagellar activity from compounds having classical antibiotic effects (i.e., bacteriostatic and/or bactericidal effects), the test compounds were additionally subjected to MIC/MBC testing. Helicobacter pylori were grown in liquid culture by harvesting bacteria from overnight-grown plates into brain-heart infusion medium (BHI, Oxoid) with 3% yeast extract and 5% horse serum, added to an initial inoculum of OD600 = 0.05. 10 ml of this bacterial suspension were incubated as a preculture in a 50 ml Falcon tube with lid ajar inside of an air-tight incubation jar and a microaerobic atmosphere generated by Merck Anaerocult C gas generating packs at 37°C and shaking with 175 rpm overnight. On the following day, prior to the beginning of the experiment, the OD600 of the liquid culture was routinely below 1, in mid-exponential growth phase.
Next, 200 µl of the bacterial suspension were added per well of a 24-well-plate (Greiner Cellstar #662160) diluted to an initial OD600 of 0.07. Compounds (in DMSO) were added to the sample wells in duplicates in a serial dilution of starting at an upper limit of 256 µg/ml. Pure DMSO was added to all wells for a concentration of 2% DMSO per well. The multiwell plate (with lid) was incubated inside of an incubation jar and a microaerobic atmosphere generated by Merck Anaerocult C sachets at 37°C and shaking with 175 rpm for 24 h. For measurement, the duplicates were pooled after visual inspection, diluted 1:3 in medium and measured in plastic cuvettes as an OD at 600 nm. The detection limit of growth was defined as an OD600 of 0.05. […] This MIC determination method can also be downscaled, further automated and measured in 96- or 384-well plates in a micro-well plate incubator equipped with a gas chamber for microaerobic bacterial incubation.
For evaluation of the "minimum bactericidal concentration" (MBC), bacteria from the MIC experiment were streaked and plated at different serial dilutions on blood agar, including the lowest compound concentration where bacterial growth was still measurable by OD600 (OD600 ≥ 0.05), and three compound concentration levels above (if possible). The blood agar plates were incubated at 37°C in an […], either inside an incubation jar (Oxoid) with an Anaerocult C gas pack (Merck), or in an anaerobic cabinet aerated with a microaerobic gas mix as outlined above (Scholzen).
For evaluation of the MBC, bacteria from the MIC experiment were plated as streaks or in appropriate dilutions on Columbia blood agar plates, using inoculation loops. The plates were incubated at 37°C overnight to detect growth.

Q: Which results are given for `Cn1c(CSC(=N)N)c(Cl)c(=O)n1-c1ccccc1` [Active 2]?
A: Metabolic assay (% of control) (H. pylori N6 [1]): 102,2 % of control; plasma cytokine loads [2]: No significant change of plasma cytokine loads; IC50 ([3]; H. pylori flaA-luciferase reporter strain N6, Table 6): 2.75 µg/mL (≈ 9.27 µM); Luciferase assay (% of control) ([3]; H. pylori screen): 2,6 % of control; IC50 ([3]; Helicobacter pylori, H. pylori flaA-luciferase reporter strain N6, Table 6): < 4.5 µg/mL; IC50 ([3]; Helicobacter pylori, read-out: IC50 (luciferase assay), luciferase flagellar reporter assay, Table 3): 2.74 µg/mL and 8 µM; inhibitory activity in luciferase reporter assay ([3]; result in words): strong inhibitor in the primary anti-flagellar reporter screen; MIC/MBC (H. pylori N6 [4]; H. pylori): > 256 µg/mL; MIC (H. pylori N6 [4]; Helicobacter pylori, N6): > 256 µg/mL; classical antibacterial activity (growth / metabolic inhibition) against H. pylori (H. pylori N6 [4]): did not inhibit growth or metabolic activity of H. pylori; classical antibacterial activity (growth / metabolic inhibition) against H. pylori (H. pylori N6 [4]; listed as BL2): not active against H. pylori in a classical antibacterial (antibiotic) manner
